{
  "source": "patent US20160199463A1",
  "about": "“HDAC2 DEFENDS VASCULAR ENDOTHELIUM FROM INJURY” (The Johns Hopkins University, priority 2014, published 2016)",
  "key": {"[1]": {"tested_on": "arginase activity in mice aortas", "experiment": "Arginase activity in isolated segments of mice aorta", "assay_type": "cell-based, mouse", "details": "TSA 200 nmol/L"}, "[2]": {"tested_on": "HDAC", "details": "cited from earlier work"}, "[3]": {"tested_on": "human ARG2 promoter", "experiment": "Human Arg2 promoter assay using luciferase activity in HAECs", "assay_type": "cell-based", "description": "Chromosomal DNA was prepared from HAECs using Trizol reagent as per manufacturer's protocol (Life sciences). Promoter fragments of Arg2 were amplified by PCR using specific primer sets as follows.\nPI Forward 5′-GGGCTCGAGTGAGGTGAAATAAATTTCAGGAGTTTA-3′ (SEQ ID NO: 24); Reverse 5′-GCCAAGCTTAGCCGGGAGTGAGCGCCACCGCCC-3′ (SEQ ID NO: 25), 1 Kb; PII Forward 5′-GGGCTCGAGATAACCAGCGCTCCCGTTATTCAG-3′ (SEQ ID NO: 26); Reverse 5′-GCCAAGCTTAGCCGGGAGTGAGCGCCACCGCCC-3′ (SEQ ID NO: 27), 0.3 Kb; PIII Forward 5′-GGGCTCGAGGTTCAGGAACCTGGCATGGGCCGG-3′ (SEQ ID NO: 28); Reverse 5′-GCCAAGCTTAGCCGGGAGTGAGCGCCACCGCCC-3′ (SEQ ID NO: 29), 0.65 Kb; PIV Forward 5′-GGGCTCGAGTGAGGTGAAATAAATTTCAGGAGTTTA-3′ (SEQ ID NO: 30); Reverse 5′-GCCAAGCTTCCGGCCCATGCCAGGTTCCTGAAC-3′ (SEQ ID NO: 31), 0.3 kb.\nThese were cloned into the restriction sites for XhoI and HindIII on the pGL3-enhancer vector (Promega Co.). HAECs were transfected with the plasmids using Fugene 6 reagent (Roche Co.) and luciferase activity was measured by Dual-luciferase reporter assay system (Promega Co.). The luciferase activity was reported as relative luciferase units by dividing firefly luciferase activity by Renilla luciferase activity."}, "[4]": {"tested_on": "Arg2 mRNA", "experiment": "Arg2 mRNA in HAECs (RT-PCR, real-time PCR)", "assay_type": "cell-based, human", "details": "preincubated with TSA", "description": "Total RNA was extracted from segments of mice aortas and HAEC using Trizol and PureLink (Invitrogen). RNA was then reverse transcribed with oligo dT primers to obtain cDNA and quantitative real time PCR (Applied Biosystems) was performed using SYBR Green Supermix mix (Applied Biosystems) whereas semiquantitative RTPCR was performed using conventional Biorad PCR machine and the following primer sets: Real Time PCR data are expressed as “fold change”, which is calculated as 2-ΔΔCt."}, "[5]": {"tested_on": "arginase activity in HAECs", "experiment": "Arginase activity assay (urea production) in HAEC lysates", "assay_type": "cell-based, human", "description": "HAEC were lysed using RIPA buffer (50 mM of Tris.HCl, pH 7.5, 0.1 mM EDTA, 0.1% Triton X-100, and protease inhibitor), and centrifuged for 30 min at 14,000 g at 4° C. 50 μL (50-100 μg) of supernatant was added to 75 μl of 10 mM MnCl2 made in Tris-HCl (50 mM, pH 7.5) and heat activated by incubating at 55-60° C. for 10 min. 50 μL of L-Arginine that was prepared in 300 mM Tris-HCL, pH 9.7 were then added to the activated cell lysates to achieve final concentrations of 150 mM and incubated at 37° C. for 3 hrs with shaking. The reaction was stopped by adding 400 μL of an acid solution (H2SO4: H3PO4: H20=1:3:7). For colorimetric determination of urea, α-isonitrosopropiophenone (25 μL, 9% in ethanol) was added and further heated at 100° C. for 45 min. Samples were allowed to cool at room temperature in the dark for 10 min and urea concentration was determined by measuring absorbance at 550 nm using a spectrophotometer."}, "[6]": {"tested_on": "Arg2 mRNA", "experiment": "Arg2 mRNA in isolated mice aorta (real-time PCR)", "assay_type": "cell-based, mouse", "details": "TSA 200 nmol/L, 18 hours", "description": "Total RNA was extracted from segments of mice aortas and HAEC using Trizol and PureLink (Invitrogen). RNA was then reverse transcribed with oligo dT primers to obtain cDNA and quantitative real time PCR (Applied Biosystems) was performed using SYBR Green Supermix mix (Applied Biosystems) whereas semiquantitative RTPCR was performed using conventional Biorad PCR machine and the following primer sets:\nReal Time PCR data are expressed as “fold change”, which is calculated as 2-ΔΔCt."}, "[7]": {"tested_on": "Arg2 ubiquitination", "experiment": "Arg2 ubiquitination in HAECs (immunoprecipitation)", "assay_type": "cell-based, human", "details": "preincubation with TSA; MG132 10 μmol/L in all groups", "description": "After 48 hrs of HAEC cells transfection, cells were lysed in ice cold RIPA lysis buffer consisting of 20 mM Tris-HCl at pH 7.5, 150 mM NaCl, 1 mM EDTA, 1 mM EGTA, 1% NP40, 1% sodium deoxycholate, 1 mM Na3VO4, 2.5 mM sodium pyrophosphate, 1 mM 3-glycerophosphate, 1 μg/mL leupeptin, and a 1:1000 diluted protease inhibitor cocktail (Sigma). For immunoprecipitation studies, whole cell lysate lysates were centrifuged at 14,000×g and supernatants were precleared by incubation with Protein A/G-agarose beads for 2 h at 4° C. with rocking. Agarose beads were then pelleted by centrifugation at 1,000×g. FLAG-Arg2 in precleared lysates were immunoprecipitated by incubation overnight at 4° C. with rocking following addition of anti-FLAG antibody (10 μl). Immune complexes were eluted in 2×SDS sample buffer by boiling for 5 minutes before loading into SDS-PAGE. Western blotting analysis was performed by transferring the SDS gel onto a PVDF membrane and visualized using secondary antibodies conjugated to alkaline phosphatases.\nPosttranslational modification by ubiquitin subjects proteins to proteasomal degradation and, therefore, affects their abundance. Because both acetylation and ubiquitination target lysine residues of proteins, there is a significant cross talk between these 2 pathways (Yang et al., 2008 Mol Cell, 31:449-461). […]"}},
  "data": [
    {"molecule": "CC(/C=C/C(=O)NO)=C\\[C@@H](C)C(=O)c1ccc(N(C)C)cc1", "note": "[TSA, trichostatin A]", "values": [
      {"measurement": "arginase activity", "setting": "[1]", "value": "robust increase"},
      {"measurement": "IC50", "setting": "[2]", "value": 1.8, "unit": "nM"},
      {"measurement": "Arg2 promoter activity (luciferase)", "setting": "[3]; TSA 1 μmol/L, 8 hours, versus vehicle", "value": "increased"},
      {"measurement": "Arg2 promoter activity, dose dependence", "setting": "[3]; increasing doses of TSA", "value": "dose dependent"},
      {"measurement": "Arg2 mRNA", "setting": "[4]", "value": "substantially upregulated"},
      {"measurement": "HAEC arginase activity, short-term", "setting": "[5]; 30 minutes, nicotinamide 5 mmol/L, TSA 1 μmol/L", "value": "no effect"},
      {"measurement": "total arginase activity", "setting": "[5]; TSA 400 nmol/L, 18 hours", "value": "increased"},
      {"measurement": "Arg2 mRNA", "setting": "[6]", "value": "substantially upregulated"},
      {"measurement": "ubiquitination of Arg2", "setting": "[7]", "value": "no effects"}
    ]}
  ]
}
